In US8147838B2, “Peptide” (priority 2005, dated 2012):

System: PBMCs recovered from TroVax treated patients
Type: cell-based, human
Details: for most likely HLA restriction: from HLA-type frequency among responding patients; for HLA-type distribution among positive proliferative responses: DQ2: responding patients with HLA type DQ2 / all responding patients; for HLA-type distribution among positive proliferative responses: DQ2 / HLA-type distribution among positive proliferative responses: DQ4 / HLA-type distribution among positive proliferative responses: DQ5 / HLA-type distribution among positive proliferative responses: DQ6 / HLA-type distribution among positive proliferative responses: DQ7 / HLA-type distribution among positive proliferative responses: DQ8 / HLA-type distribution among positive proliferative responses: DQ9 / HLA-type distribution among positive proliferative responses: DR1 / HLA-type distribution among positive proliferative responses: DR4 / HLA-type distribution among positive proliferative responses: DR7 / HLA-type distribution among positive proliferative responses: DR8 / HLA-type distribution among positive proliferative responses: DR9 / HLA-type distribution among positive proliferative responses: DR11 / HLA-type distribution among positive proliferative responses: DR13 / HLA-type distribution among positive proliferative responses: DR15 / HLA-type distribution among positive proliferative responses: DR17 / HLA-type distribution among positive proliferative responses: DR51 / HLA-type distribution among positive proliferative responses: DR52 / HLA-type distribution among positive proliferative responses: DR53: PBMCs from TroVax treated patients; for HLA-type distribution among positive proliferative responses: DQ4: responding patients with HLA type DQ4 / all responding patients; for HLA-type distribution among positive proliferative responses: DQ5: responding patients with HLA type DQ5 / all responding patients; for HLA-type distribution among positive proliferative responses: DQ6: responding patients with HLA type DQ6 / all responding patients; for HLA-type distribution among positive proliferative responses: DQ7: responding patients with HLA type DQ7 / all responding patients; for HLA-type distribution among positive proliferative responses: DQ8: responding patients with HLA type DQ8 / all responding patients; for HLA-type distribution among positive proliferative responses: DQ9: responding patients with HLA type DQ9 / all responding patients; for HLA-type distribution among positive proliferative responses: DR1: responding patients with HLA type DR1 / all responding patients; for HLA-type distribution among positive proliferative responses: DR4: responding patients with HLA type DR4 / all responding patients; for HLA-type distribution among positive proliferative responses: DR7: responding patients with HLA type DR7 / all responding patients; for HLA-type distribution among positive proliferative responses: DR8: responding patients with HLA type DR8 / all responding patients; for HLA-type distribution among positive proliferative responses: DR9: responding patients with HLA type DR9 / all responding patients; for HLA-type distribution among positive proliferative responses: DR11: responding patients with HLA type DR11 / all responding patients; for HLA-type distribution among positive proliferative responses: DR13: responding patients with HLA type DR13 / all responding patients; for HLA-type distribution among positive proliferative responses: DR15: responding patients with HLA type DR15 / all responding patients; for HLA-type distribution among positive proliferative responses: DR17: responding patients with HLA type DR17 / all responding patients; for HLA-type distribution among positive proliferative responses: DR51: responding patients with HLA type DR51 / all responding patients; for HLA-type distribution among positive proliferative responses: DR52: responding patients with HLA type DR52 / all responding patients; for HLA-type distribution among positive proliferative responses: DR53: responding patients with HLA type DR53 / all responding patients
[1] = positive proliferative responses

Substance	most likely HLA restriction	HLA-type distribution among positive proliferative responses: DQ2	HLA-type distribution among positive proliferative responses: DQ4	HLA-type distribution among positive proliferative responses: DQ5	HLA-type distribution among positive proliferative responses: DQ6	HLA-type distribution among positive proliferative responses: DQ7	HLA-type distribution among positive proliferative responses: DQ8	HLA-type distribution among positive proliferative responses: DQ9	HLA-type distribution among positive proliferative responses: DR1	HLA-type distribution among positive proliferative responses: DR4	HLA-type distribution among positive proliferative responses: DR7	HLA-type distribution among positive proliferative responses: DR8	HLA-type distribution among positive proliferative responses: DR9	HLA-type distribution among positive proliferative responses: DR11	HLA-type distribution among positive proliferative responses: DR13	HLA-type distribution among positive proliferative responses: DR15	HLA-type distribution among positive proliferative responses: DR17	HLA-type distribution among positive proliferative responses: DR51	HLA-type distribution among positive proliferative responses: DR52	HLA-type distribution among positive proliferative responses: DR53	further results
42.2: class II 5T4 20 mer peptide (details in Table 12) (MRNRVLLELNSADLDCDPIL) [Peptide 42.2]	DQ6, DR51, DQ5, or DR15	4/12	0/12	6/12	8/12	0/12	1/12	1/12	4/12	1/12	3/12	0/12	0/12	1/12	2/12	6/12	2/12	7/12	5/12	3/12	responders with HLA type DQ5 out of all responders [1]: 6 out of 12; responders with HLA type DQ6 out of all responders [1]: 8 out of 12; responders with HLA type DR15 out of all responders [1]: 6 out of 12; responders with HLA type DR51 out of all responders [1]: 7 out of 12
43.2: class II 5T4 20 mer peptide (details in Table 12) (LNSADLDCDPILPPSLQTSY) [Peptide 43.2]	DQ6, DR15, or DR51	5/11	1/11	3/11	7/11	1/11	0/11	1/11	2/11	0/11	4/11	1/11	0/11	1/11	2/11	6/11	2/11	6/11	4/11	3/11	responders with HLA type DQ6 out of all responders [1]: 7 out of 11; responders with HLA type DR15 out of all responders [1]: 6 out of 11; responders with HLA type DR51 out of all responders [1]: 6 out of 11
44.2: class II 5T4 20 mer peptide (details in Table 12) (DPILPPSLQTSYVFLGIVLA) [Peptide 44.2]	DQ6, DR15, DR51, or DR52	3/9	0/9	3/9	5/9	3/9	0/9	1/9	2/9	1/9	0/9	0/9	1/9	1/9	1/9	5/9	3/9	5/9	5/9	2/9	responders with HLA type DQ6 out of all responders [1]: 5 out of 9; responders with HLA type DR15 out of all responders [1]: 5 out of 9; responders with HLA type DR51 out of all responders [1]: 5 out of 9; responders with HLA type DR52 out of all responders [1]: 5 out of 9
40.2: class II 5T4 20 mer peptide (details in Table 12) (EVVQGKDRLTCAYPEKMRNR) [Peptide 40.2]	DQ6, DR15, DR51, or DR52	5/12	1/12	2/12	8/12	3/12	0/12	2/12	1/12	1/12	3/12	1/12	1/12	1/12	3/12	6/12	3/12	6/12	6/12	4/12	responders with HLA type DQ6 out of all responders [1]: 8 out of 12; responders with HLA type DR15 out of all responders [1]: 6 out of 12; responders with HLA type DR51 out of all responders [1]: 6 out of 12; responders with HLA type DR52 out of all responders [1]: 6 out of 12
36.2: class II 5T4 20 mer peptide (details in Table 12) (LQGLPHIRVFLDNNPWVCDC) [Peptide 36.2]	DQ2, DR7, or DR53	3/7	0/7	2/7	2/7	2/7	0/7	2/7	2/7	1/7	3/7	0/7	1/7	1/7	1/7	2/7	1/7	2/7	2/7	3/7	responders with HLA type DQ2 out of all responders [1]: 3 out of 7; responders with HLA type DR7 out of all responders [1]: 3 out of 7; responders with HLA type DR53 out of all responders [1]: 3 out of 7
45.2: class II 5T4 20 mer peptide (details in Table 12) (MRNRVLLELNSADLDCDPIL) [Peptide 45.2]	DQ6, DR53, DR15, or DR51	3/8	0/8	2/8	5/8	3/8	0/8	0/8	2/8	3/8	2/8	0/8	0/8	0/8	1/8	4/8	1/8	4/8	2/8	5/8	responders with HLA type DQ6 out of all responders [1]: 5 out of 8; responders with HLA type DR15 out of all responders [1]: 4 out of 8; responders with HLA type DR51 out of all responders [1]: 4 out of 8; responders with HLA type DR53 out of all responders [1]: 5 out of 8
